Target: T1, Lsm12 (Homo sapiens, UniProt Q3MHD2)
T1 construct: hLsm12-HisE.coli: 6×His-tagged human Lsm12 (195 residues in full length) purified from E. coli
Assay: competition […]-NAADP radioligand binding with purified protein; also competition pull-down with immobilized NAADP (Kd […])

T1 sequence (Q3MHD2 whole entry): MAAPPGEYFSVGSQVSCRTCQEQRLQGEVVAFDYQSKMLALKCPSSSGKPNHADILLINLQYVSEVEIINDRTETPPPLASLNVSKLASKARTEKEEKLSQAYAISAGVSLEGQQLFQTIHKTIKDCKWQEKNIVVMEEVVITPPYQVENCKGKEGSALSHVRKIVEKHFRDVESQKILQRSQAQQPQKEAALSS

For `Nc1ncnc2c1ncn2[C@@H]1O[C@H](COP(=O)(O)OP(=O)(O)OC[C@H]2O[C@@H]([n+]3cccc(C(=O)[O-])c3)[C@H](O)[C@@H]2O)[C@@H](O)[C@H]1OP(=O)(O)O` [NAADP], the Kd was roughly 20 nM.

From paper PMC8346516 (Nature Communications, 2021)
